{
  "source": "ChEMBL document CHEMBL5465560",
  "about": "“Selectivity Literature for EUbOPEN Chemogenomic Library” (2024)",
  "key": {"[1]": {"target": "T1, Ephrin type-A receptor 1 (Homo sapiens) (UniProt P21709)", "T1 sequence (whole entry)": "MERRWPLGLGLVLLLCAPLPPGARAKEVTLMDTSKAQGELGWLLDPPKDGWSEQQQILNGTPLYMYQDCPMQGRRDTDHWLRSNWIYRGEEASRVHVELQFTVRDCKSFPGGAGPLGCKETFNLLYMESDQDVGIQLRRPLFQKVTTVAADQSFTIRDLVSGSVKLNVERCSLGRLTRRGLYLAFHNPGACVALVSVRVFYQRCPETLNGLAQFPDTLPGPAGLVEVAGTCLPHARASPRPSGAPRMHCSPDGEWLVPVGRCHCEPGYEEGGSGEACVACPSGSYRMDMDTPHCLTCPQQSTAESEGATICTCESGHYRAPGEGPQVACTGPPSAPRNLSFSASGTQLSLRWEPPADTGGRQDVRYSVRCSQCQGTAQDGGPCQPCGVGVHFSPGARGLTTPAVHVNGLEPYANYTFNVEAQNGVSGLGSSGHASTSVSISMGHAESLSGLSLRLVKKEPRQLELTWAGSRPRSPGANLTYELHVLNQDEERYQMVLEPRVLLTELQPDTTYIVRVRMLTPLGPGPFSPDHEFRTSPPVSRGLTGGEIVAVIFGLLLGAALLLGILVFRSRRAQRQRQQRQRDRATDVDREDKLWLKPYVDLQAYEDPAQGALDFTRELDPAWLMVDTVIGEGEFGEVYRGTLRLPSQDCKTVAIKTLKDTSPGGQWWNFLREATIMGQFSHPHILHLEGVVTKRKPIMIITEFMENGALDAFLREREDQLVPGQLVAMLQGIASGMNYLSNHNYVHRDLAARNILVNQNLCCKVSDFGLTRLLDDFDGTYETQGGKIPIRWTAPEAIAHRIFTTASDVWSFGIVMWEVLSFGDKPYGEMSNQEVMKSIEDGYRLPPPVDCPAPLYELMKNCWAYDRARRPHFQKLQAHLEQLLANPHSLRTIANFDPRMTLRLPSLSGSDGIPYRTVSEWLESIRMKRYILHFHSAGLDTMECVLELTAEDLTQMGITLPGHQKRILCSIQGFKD", "assay": "Selectivity interaction (Kinase panel (Invitrogen)) EUB0000639a EPHA1", "details": "at 200 nM"}, "[2]": {"target": "T2, Inhibitor of nuclear factor kappa-B kinase subunit beta (Homo sapiens) (UniProt O14920)", "T2 sequence (whole entry)": "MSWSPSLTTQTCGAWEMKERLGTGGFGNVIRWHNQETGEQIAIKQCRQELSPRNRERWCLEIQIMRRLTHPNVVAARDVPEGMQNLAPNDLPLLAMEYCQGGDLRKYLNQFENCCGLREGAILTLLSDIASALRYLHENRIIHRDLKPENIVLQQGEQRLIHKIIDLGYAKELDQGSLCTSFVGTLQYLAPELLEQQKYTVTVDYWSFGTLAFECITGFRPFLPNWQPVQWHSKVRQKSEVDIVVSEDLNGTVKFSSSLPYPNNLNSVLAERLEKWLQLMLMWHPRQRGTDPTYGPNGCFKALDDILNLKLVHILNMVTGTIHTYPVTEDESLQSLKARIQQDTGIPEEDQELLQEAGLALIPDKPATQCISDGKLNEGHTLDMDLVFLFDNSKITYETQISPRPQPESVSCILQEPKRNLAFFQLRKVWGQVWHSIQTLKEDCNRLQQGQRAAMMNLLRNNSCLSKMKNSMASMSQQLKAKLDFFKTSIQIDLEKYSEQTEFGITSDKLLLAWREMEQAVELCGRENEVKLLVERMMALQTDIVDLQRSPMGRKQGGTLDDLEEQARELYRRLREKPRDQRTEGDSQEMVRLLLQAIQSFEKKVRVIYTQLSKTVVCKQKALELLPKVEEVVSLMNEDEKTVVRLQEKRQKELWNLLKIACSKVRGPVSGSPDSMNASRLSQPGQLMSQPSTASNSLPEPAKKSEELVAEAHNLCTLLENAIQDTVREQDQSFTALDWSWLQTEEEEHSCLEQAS", "assay": "Selectivity interaction (KinomeScan (DiscoverX)) EUB0000695a IKBKB", "details": "at 100 nM"}, "[3]": {"target": "T3, Mitogen-activated protein kinase kinase kinase 15 (Homo sapiens) (UniProt Q6ZN16)", "T3 sequence (whole entry)": "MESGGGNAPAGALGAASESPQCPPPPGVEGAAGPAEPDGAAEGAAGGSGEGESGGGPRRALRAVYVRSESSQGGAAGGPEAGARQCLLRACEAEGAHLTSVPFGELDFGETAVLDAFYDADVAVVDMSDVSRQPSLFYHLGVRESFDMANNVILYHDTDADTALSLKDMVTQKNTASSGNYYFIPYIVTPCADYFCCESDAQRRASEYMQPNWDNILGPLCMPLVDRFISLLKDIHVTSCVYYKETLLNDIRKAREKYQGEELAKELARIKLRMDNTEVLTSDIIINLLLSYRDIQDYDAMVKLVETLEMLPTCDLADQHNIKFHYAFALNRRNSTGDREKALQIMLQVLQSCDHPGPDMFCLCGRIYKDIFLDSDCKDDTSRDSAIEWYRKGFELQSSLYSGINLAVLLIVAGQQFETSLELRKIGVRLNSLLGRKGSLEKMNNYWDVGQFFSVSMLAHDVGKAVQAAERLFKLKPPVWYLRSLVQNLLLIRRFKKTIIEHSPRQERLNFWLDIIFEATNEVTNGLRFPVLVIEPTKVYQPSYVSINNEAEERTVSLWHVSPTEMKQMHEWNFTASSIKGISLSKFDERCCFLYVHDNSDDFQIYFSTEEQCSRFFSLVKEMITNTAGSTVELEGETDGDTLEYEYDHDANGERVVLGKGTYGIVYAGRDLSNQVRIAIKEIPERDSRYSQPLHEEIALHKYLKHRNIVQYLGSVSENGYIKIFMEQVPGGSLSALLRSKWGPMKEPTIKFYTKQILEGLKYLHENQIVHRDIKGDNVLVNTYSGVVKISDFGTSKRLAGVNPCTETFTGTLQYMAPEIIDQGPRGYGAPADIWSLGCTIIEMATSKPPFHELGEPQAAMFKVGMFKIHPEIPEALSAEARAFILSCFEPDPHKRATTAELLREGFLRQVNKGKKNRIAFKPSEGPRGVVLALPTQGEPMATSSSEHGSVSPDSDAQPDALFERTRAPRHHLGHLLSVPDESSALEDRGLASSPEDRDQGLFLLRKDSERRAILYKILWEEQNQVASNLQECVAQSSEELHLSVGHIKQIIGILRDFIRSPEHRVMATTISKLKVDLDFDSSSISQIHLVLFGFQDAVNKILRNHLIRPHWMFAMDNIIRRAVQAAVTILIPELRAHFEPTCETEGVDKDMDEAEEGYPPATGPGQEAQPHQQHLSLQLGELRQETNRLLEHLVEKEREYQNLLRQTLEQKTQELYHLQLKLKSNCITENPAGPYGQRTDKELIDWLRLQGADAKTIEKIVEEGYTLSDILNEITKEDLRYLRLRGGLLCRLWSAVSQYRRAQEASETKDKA", "assay": "Selectivity interaction (KinomeScan (DiscoverX)) EUB0000666a MAP3K15", "details": "at 10 µM"}},
  "data": [
    {"smiles": "CC[C@@H]1[C@H](F)C(=O)N[C@@H]1COc1nccc2cc(C(N)=O)c(OC)cc12", "note": "[ZIMLOVISERTIB]", "values": [
      {"measurement": "% of inhibition", "setting": "[1]", "value": 4.58, "unit": "%"}
    ]},
    {"smiles": "Cc1cc(F)c(C(=O)Nc2cccc(-c3nncn3C(C)C)n2)cc1-n1cnc(C2CC2)c1", "values": [
      {"measurement": "% of control", "setting": "[2]", "value": 100, "unit": "%"}
    ]},
    {"smiles": "O=C(NOC[C@H](O)CO)c1ccc(F)c(F)c1Nc1ccc(I)cc1F", "values": [
      {"measurement": "% of control", "setting": "[3]", "value": 100, "unit": "%"}
    ]}
  ]
}
